# Laboratory results published in publication PMC8766756, “Insights on Cancer Cell Inhibition, Subcellular Activities, and Kinase Profile of Phenylacetamides Pending 1H-Imidazol-5-One Variants” (Frontiers in Pharmacology, 2022).
# Assays:
# Test in all cases: PamChip tyrosine kinase microarray
# Assay type in all cases: biochemical
# Settings in all cases: 0.1 µM, HL60 lysate
# Met (P08581) = target: T1, Met (P08581) (Homo sapiens, UniProt P08581)
# T1 construct: purchased PamGene (PamChip PTK array, Upstream Kinase Analysis)
# Outline: (§1)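 HL60 (AML) cell lysate was spiked with compound at 0.001, 0.01, 0.1, 1, 10 and 50 µM, or 2% v/v DMSO as control, then profiled in technical replicates on a tyrosine kinase peptide array of 196 phosphosites. Kinase activity was inferred from peptide-set changes using an upstream kinase tool.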
# Tyk2 (P29597) = target: T2, Tyk2 (P29597) (Homo sapiens, UniProt P29597)
# T2 construct: purchased PamGene (PamChip PTK array, Upstream Kinase Analysis)
# Outline: as §1
# Abl (P00519) = target: T3, Abl (P00519) (Homo sapiens, UniProt P00519)
# T3 construct: purchased PamGene (PamChip PTK array, Upstream Kinase Analysis)
# Outline: as §1
# Arg (P42684) = target: T4, Arg (P42684) (Homo sapiens, UniProt P42684)
# T4 construct: purchased PamGene (PamChip PTK array, Upstream Kinase Analysis)
# Outline: as §1
# Etk/BMX (P51813) = target: T5, Etk/BMX (P51813) (Homo sapiens, UniProt P51813)
# T5 construct: purchased PamGene (PamChip PTK array, Upstream Kinase Analysis)
# T5 sequence (P51813 1-675): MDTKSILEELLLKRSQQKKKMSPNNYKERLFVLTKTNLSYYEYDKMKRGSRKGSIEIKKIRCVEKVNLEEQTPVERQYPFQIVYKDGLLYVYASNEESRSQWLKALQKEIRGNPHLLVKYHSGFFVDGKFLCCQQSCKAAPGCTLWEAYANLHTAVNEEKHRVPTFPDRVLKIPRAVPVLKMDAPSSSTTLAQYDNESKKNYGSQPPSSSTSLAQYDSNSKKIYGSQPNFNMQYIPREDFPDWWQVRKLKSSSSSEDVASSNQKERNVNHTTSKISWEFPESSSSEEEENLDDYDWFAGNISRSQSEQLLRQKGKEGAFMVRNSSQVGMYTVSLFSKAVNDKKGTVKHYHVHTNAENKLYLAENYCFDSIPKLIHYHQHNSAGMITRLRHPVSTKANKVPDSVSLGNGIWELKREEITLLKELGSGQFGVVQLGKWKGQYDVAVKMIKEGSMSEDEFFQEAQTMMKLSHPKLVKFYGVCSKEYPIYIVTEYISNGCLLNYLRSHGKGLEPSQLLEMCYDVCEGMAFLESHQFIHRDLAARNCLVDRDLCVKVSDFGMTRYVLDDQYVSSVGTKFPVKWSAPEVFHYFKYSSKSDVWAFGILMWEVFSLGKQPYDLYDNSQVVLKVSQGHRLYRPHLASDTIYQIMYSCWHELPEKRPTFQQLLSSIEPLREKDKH
# Outline: as §1
# Brk (Q13882) = target: T6, Brk (Q13882) (Homo sapiens, UniProt Q13882)
# T6 construct: purchased PamGene (PamChip PTK array, Upstream Kinase Analysis)
# Outline: as §1
# T6 sequence (Q13882 whole entry): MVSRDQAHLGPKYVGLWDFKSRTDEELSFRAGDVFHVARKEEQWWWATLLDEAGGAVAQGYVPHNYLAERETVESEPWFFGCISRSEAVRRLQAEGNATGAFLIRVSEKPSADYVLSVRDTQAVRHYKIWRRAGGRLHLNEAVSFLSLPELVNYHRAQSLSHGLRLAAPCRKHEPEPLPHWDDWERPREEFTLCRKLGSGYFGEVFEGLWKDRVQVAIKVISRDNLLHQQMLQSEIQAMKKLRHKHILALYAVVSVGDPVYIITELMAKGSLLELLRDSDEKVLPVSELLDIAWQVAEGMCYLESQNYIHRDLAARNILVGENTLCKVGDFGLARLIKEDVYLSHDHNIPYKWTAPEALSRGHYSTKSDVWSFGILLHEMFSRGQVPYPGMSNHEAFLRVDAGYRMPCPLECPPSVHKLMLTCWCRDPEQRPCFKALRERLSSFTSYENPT
# T1 sequence (P08581 25-1390): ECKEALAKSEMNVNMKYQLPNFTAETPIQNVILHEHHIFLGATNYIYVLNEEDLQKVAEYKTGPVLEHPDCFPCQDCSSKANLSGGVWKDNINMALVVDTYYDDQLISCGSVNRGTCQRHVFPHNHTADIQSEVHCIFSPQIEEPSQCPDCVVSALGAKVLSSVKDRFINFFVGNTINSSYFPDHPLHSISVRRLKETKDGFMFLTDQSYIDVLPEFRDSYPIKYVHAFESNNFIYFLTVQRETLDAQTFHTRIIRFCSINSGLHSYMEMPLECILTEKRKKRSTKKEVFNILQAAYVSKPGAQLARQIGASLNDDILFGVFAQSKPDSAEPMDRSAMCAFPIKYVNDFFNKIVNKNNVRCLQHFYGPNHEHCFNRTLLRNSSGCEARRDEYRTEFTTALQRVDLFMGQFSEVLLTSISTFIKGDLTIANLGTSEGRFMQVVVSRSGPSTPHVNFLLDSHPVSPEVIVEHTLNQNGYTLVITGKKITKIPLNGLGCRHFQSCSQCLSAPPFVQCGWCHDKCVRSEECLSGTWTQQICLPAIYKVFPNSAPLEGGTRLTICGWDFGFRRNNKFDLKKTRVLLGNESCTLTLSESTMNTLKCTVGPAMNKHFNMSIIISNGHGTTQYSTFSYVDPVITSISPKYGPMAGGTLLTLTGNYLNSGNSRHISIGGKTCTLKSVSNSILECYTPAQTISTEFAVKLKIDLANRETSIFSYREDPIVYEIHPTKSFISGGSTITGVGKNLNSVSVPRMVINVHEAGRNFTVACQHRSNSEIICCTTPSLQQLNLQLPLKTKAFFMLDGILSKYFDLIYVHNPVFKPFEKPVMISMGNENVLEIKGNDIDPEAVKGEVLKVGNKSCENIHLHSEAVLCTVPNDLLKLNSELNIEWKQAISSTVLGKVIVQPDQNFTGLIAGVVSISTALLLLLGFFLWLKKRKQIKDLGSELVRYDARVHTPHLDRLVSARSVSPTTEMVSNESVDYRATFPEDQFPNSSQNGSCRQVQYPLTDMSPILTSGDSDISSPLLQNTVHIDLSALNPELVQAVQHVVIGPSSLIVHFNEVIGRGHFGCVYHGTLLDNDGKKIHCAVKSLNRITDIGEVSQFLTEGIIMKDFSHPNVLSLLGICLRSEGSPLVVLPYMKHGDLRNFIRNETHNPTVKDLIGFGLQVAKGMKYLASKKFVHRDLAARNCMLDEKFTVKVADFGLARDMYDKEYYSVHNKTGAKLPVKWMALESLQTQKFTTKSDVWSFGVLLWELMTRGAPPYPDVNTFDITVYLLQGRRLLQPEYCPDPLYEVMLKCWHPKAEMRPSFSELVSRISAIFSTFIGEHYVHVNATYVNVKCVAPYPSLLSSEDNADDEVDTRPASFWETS
# T4 sequence (P42684 whole entry): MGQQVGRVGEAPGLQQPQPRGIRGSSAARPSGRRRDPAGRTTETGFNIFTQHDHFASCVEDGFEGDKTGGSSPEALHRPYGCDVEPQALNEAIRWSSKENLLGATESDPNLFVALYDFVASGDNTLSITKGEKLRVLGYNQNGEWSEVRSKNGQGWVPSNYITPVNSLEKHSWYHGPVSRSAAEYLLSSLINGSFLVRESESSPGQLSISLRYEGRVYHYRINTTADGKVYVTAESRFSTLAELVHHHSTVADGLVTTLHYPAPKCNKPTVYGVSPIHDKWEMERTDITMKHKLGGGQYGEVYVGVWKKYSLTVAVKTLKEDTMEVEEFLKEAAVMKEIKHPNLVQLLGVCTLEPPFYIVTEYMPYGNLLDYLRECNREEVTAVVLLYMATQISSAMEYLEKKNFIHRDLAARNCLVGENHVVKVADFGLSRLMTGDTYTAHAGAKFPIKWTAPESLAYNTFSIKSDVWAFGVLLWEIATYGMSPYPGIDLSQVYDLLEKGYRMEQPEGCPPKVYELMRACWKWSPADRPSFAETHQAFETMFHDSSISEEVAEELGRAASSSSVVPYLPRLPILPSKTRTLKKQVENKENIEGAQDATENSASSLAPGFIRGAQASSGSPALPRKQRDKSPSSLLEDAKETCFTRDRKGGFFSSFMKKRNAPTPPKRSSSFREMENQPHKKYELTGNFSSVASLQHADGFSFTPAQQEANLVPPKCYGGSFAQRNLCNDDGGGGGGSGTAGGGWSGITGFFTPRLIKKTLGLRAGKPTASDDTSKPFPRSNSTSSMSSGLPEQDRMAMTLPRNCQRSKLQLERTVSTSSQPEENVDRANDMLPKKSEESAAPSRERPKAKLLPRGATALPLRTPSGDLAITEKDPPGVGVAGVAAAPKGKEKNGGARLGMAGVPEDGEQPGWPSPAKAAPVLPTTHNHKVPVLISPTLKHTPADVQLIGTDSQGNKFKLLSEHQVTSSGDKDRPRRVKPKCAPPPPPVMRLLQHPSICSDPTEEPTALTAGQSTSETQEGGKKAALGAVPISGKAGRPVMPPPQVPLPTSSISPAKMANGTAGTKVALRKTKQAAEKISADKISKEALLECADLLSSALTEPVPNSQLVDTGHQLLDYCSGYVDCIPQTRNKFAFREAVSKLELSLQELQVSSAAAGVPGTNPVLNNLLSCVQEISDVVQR
# T3 sequence (P00519 whole entry): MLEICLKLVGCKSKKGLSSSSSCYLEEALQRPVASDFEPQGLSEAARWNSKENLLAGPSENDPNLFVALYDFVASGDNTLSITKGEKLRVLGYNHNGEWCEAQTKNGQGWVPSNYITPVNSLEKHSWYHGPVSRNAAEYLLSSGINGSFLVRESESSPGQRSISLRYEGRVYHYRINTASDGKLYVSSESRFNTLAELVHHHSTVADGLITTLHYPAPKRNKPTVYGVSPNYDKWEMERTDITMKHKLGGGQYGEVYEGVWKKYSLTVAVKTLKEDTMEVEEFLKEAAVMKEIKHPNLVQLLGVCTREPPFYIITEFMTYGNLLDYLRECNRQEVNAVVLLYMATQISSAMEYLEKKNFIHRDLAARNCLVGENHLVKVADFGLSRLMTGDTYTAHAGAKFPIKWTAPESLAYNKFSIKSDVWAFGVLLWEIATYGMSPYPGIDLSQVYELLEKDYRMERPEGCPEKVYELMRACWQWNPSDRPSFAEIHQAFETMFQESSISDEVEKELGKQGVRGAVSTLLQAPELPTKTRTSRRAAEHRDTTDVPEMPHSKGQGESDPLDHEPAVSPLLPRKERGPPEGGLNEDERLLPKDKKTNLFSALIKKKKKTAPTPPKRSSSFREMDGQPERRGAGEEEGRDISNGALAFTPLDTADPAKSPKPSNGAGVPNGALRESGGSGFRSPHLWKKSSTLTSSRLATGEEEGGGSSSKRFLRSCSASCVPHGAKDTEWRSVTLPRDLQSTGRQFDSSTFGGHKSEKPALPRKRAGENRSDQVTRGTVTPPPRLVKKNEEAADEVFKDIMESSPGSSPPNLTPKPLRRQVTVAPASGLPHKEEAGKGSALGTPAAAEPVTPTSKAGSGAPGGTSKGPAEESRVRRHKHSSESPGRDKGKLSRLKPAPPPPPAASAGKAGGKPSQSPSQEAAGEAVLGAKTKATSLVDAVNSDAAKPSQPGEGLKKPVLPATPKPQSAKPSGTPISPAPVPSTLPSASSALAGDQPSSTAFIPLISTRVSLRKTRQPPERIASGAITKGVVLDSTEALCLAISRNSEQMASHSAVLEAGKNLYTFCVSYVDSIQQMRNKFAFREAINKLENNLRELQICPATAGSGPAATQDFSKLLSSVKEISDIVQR
smiles,measurement,setting,value
"COc1ccc(/C=C2\N=C(C)N(c3ccc(CC(=O)NCc4ccccc4)cc3)C2=O)cc1 [Compound 4c, (Z)-N-Benzyl-2-(4-(4-(4-methoxybenzylidene)-2-methyl-5-oxo-4,5-dihydro-1H-imidazol-1-yl)phenyl)acetamide]",Mean Final score (Kinase score),Met (P08581),2.5
same,Mean Kinase Statistic,Met (P08581),-1.184
same,Mean Significance Score,Met (P08581),2.048
same,Mean Specificity Score,Met (P08581),0.4367
same,Mean Final score (Kinase score),Tyk2 (P29597),2.4437
same,Mean Kinase Statistic,Tyk2 (P29597),-1.248
same,Mean Significance Score,Tyk2 (P29597),2.048
same,Mean Specificity Score,Tyk2 (P29597),0.3814
same,Mean Final score (Kinase score),Abl (P00519),2.191
same,Mean Kinase Statistic,Abl (P00519),-1.128
same,Mean Significance Score,Abl (P00519),1.966
same,Mean Specificity Score,Abl (P00519),0.1837
same,Mean Final score (Kinase score),Arg (P42684),2.115
same,Mean Kinase Statistic,Arg (P42684),-1.085
same,Mean Significance Score,Arg (P42684),2.048
same,Mean Specificity Score,Arg (P42684),0.07369
same,Mean Final score (Kinase score),Etk/BMX (P51813),2.196
same,Mean Kinase Statistic,Etk/BMX (P51813),-1.111
same,Mean Significance Score,Etk/BMX (P51813),2.048
same,Mean Specificity Score,Etk/BMX (P51813),0.1452
same,Mean Final score (Kinase score),Brk (Q13882),2.481
same,Mean Kinase Statistic,Brk (Q13882),-1.21
same,Mean Significance Score,Brk (Q13882),2.048
same,Mean Specificity Score,Brk (Q13882),0.446
